Reference: patent publication US10501552B2, “Multivalent molecules comprising DR5-binding domains” (MacroGenics, Inc., priority 2015, dated 2019)
pKd: −log10 of the molar value.

Columns and labels:
[1] = system: astrocytoma and leukemia cells; settings: cited from earlier work
[2] = system: engrafted breast cancer cells; settings: cited from earlier work
[3] = system: COLO205; experiment: […]-GLO cell viability assay with vorinostat; format: cell-based; settings: for Average % Ctrl: one day
Protocol: For the first study COLO205 cells were plated at 2×10^4 cells/well (in 96-well plates), and incubated overnight in F12/DMEM media supplemented with 10% FBS. […] Cell viability was determined using Promega […]-GLO® Luminescent Cell Viability Assay (Cat # G5430) essentially as described in the manufacturer's instructions to assay the amount of ATP present, which is a measure of the number of viable cells in the culture. Briefly, an […]-GLO® Reagent was added to the wells and mixed for two minutes to induce lysis and the luminescence was read in a in PerkinElmer EnVision multilabel plate reader.
Cell viability of cells treated with the test articles is normalized to the corresponding negative control (medium±vorinostat) which is set to 100% and reported in Table 12 as % of control for each test agent alone or % control for each test agent in combination with vorinostat. % of control values less than 100% indicate a reduction in viability and reflect the cytotoxicity of the test article alone or in combination with vorinostat.
The Net Gain (Average % Growth Inhibition)=% Medium Ctrl (10% FBS)−% Medium Ctrl (1/10 μM vorinostat), and represents increased cytotoxicity of the test article in combination with vorinostat over cells treated with vorinostat alone.

[4] = system: BT474; experiment: […]-GLO cell viability assay with vorinostat; format: cell-based; settings: BT474 (Breast); 1 μg/ml + 10 μM Vorinostat
[5] = system: MCF7; experiment: […]-GLO cell viability assay with vorinostat; format: cell-based; settings: MCF7 (Breast); 1 μg/ml + 10 μM Vorinostat
[6] = system: MDA-MB-361; experiment: […]-GLO cell viability assay with vorinostat; format: cell-based; settings: MDA-MB-361 (Breast); 1 μg/ml + 10 μM Vorinostat
[7] = system: Hs746T; experiment: […]-GLO cell viability assay with vorinostat; format: cell-based; settings: Hs746T (Stomach); 1 μg/ml + 10 μM Vorinostat
[8] = system: HPAFII; experiment: […]-GLO cell viability assay with vorinostat; format: cell-based; settings: HPAFII (Pancreas); 1 μg/ml + 10 μM Vorinostat
[9] = system: A549; experiment: […]-GLO cell viability assay with vorinostat; format: cell-based, human; settings: A549 (Lung); 1 μg/ml + 10 μM Vorinostat
[10] = system: ES2; experiment: […]-GLO cell viability assay with vorinostat; format: cell-based; settings: ES2 (Ovary); 1 μg/ml + 10 μM Vorinostat
[11] = system: 22RV1; experiment: […]-GLO cell viability assay with vorinostat; format: cell-based; settings: 22RV1 (Prostate); 1 μg/ml + 10 μM Vorinostat
[12] = system: DU145; experiment: […]-GLO cell viability assay with vorinostat; format: cell-based, human; settings: DU145 (Prostate); 1 μg/ml + 10 μM Vorinostat
[13] = system: LNCap; experiment: […]-GLO cell viability assay with vorinostat; format: cell-based, human; settings: LNCap (Prostate); 1 μg/ml + 10 μM Vorinostat
[14] = system: MDA-MB-175VII; experiment: […]-GLO cell viability assay with vorinostat; format: cell-based; settings: MDA-MB-175VII (Breast); 1 μg/ml + 1 μM Vorinostat
[15] = system: SKBR3; experiment: […]-GLO cell viability assay with vorinostat; format: cell-based, human; settings: SKBR3 (Breast); 1 μg/ml + 1 μM Vorinostat
[16] = system: NCI-N87; experiment: […]-GLO cell viability assay with vorinostat; format: cell-based; settings: NCI-N87 (Stomach); 1 μg/ml + 1 μM Vorinostat
[17] = system: AsPC1; experiment: […]-GLO cell viability assay with vorinostat; format: cell-based; settings: AsPC1 (Pancreas); 1 μg/ml + 1 μM Vorinostat
[18] = system: Hs700T; experiment: […]-GLO cell viability assay with vorinostat; format: cell-based; settings: Hs700T (Pancreas); 1 μg/ml + 1 μM Vorinostat
[19] = system: 786O; experiment: […]-GLO cell viability assay with vorinostat; format: cell-based; settings: 786O (Kidney); 1 μg/ml + 1 μM Vorinostat
[20] = system: Calu3; experiment: […]-GLO cell viability assay with vorinostat; format: cell-based; settings: Calu3 (Lung); 1 μg/ml + 1 μM Vorinostat
[21] = system: SKOV3; experiment: […]-GLO cell viability assay with vorinostat; format: cell-based; settings: SKOV3 (Ovary); 1 μg/ml + 1 μM Vorinostat
[22] = system: PC3; experiment: […]-GLO cell viability assay with vorinostat; format: cell-based; settings: PC3 (Prostate); 1 μg/ml + 1 μM Vorinostat
[23] = biological target: cynomolgus monkey DR5 (His-tagged); experiment: Biacore analysis of binding kinetics; set-up: ka / kd: unit not given here; settings: tested as DR5×CD3 mAb 2 diabody
Protocol: Bispecific DR5×CD3 diabodies were incubated with His-tagged DR5 and the kinetics of binding was determined via Biacore analysis. […] FIG. 6, Panels A-D show the results for human DR5. FIG. 6, Panels E-H show the results for cynomolgus monkey DR5.

[24] = a few patients; higher doses (20 mg per kg); cited from earlier work
[25] = cited from earlier work
[26] = biological target: histidine tagged TRAIL (Homo sapiens, UniProt P50591); experiment: binding to TRAIL-His coat; settings: 2 μg/mL biotinylated; 1 μg/mL TRAIL-His coat
Chain of histidine tagged TRAIL (P50591 114-281 limits assumed): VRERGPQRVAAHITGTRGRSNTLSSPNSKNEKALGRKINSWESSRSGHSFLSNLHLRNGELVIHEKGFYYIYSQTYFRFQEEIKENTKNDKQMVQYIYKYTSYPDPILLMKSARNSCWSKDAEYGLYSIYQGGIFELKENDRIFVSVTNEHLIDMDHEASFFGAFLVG
Protocol: The amount of immobilized biotinylated antibody was assessed.

TRA-8/CS-1008: humanized anti-DR5 antibody (Daiichi Sankyo)
antitumor activity in vitro [1]: high antitumor activity
antitumor activity in vivo [2]: high antitumor activity

R&D TRAIL/His: His-tagged TRAIL (R&D systems) used as a positive control [reference compound]
Average % Ctrl ([3]; Vorinostat 0 μM, % Medium Ctrl (10% FBS), 10 ng/ml tetravalent molecule or 1 μg/ml DR5 mAb): 68.7%
Net Gain (Average % Growth Inhibition) ([3]; Vorinostat 0.1 μM): 15%
Average % Ctrl ([3]; Vorinostat 0.1 μM, normalized to medium + vorinostat): 54.1%
Net Gain (Average % Growth Inhibition) ([3]; Vorinostat 1 μM): 24%
Average % Ctrl ([3]; Vorinostat 1 μM, normalized to medium + vorinostat): 44.8%
Net Gain (Average % Growth Inhibition) [4]: 50.24%
Net Gain (Average % Growth Inhibition) [5]: 0.79%
Net Gain (Average % Growth Inhibition) [6]: 64.85%
Net Gain (Average % Growth Inhibition) [7]: 31.81%
Net Gain (Average % Growth Inhibition) [8]: 46.71%
Net Gain (Average % Growth Inhibition) [9]: 26.71%
Net Gain (Average % Growth Inhibition) [10]: 79.12%
Net Gain (Average % Growth Inhibition) [11]: 8.91%
Net Gain (Average % Growth Inhibition) [12]: 4.57%
Net Gain (Average % Growth Inhibition) [13]: 28.73%
Net Gain (Average % Growth Inhibition) [14]: 24.17%
Net Gain (Average % Growth Inhibition) [15]: 43.10%
Net Gain (Average % Growth Inhibition) [16]: 35.97%
Net Gain (Average % Growth Inhibition) [17]: 11.86%
Net Gain (Average % Growth Inhibition) [18]: 15.83%
Net Gain (Average % Growth Inhibition) [19]: 31.16%
Net Gain (Average % Growth Inhibition) [20]: 9.96%
Net Gain (Average % Growth Inhibition) [21]: 33.93%
Net Gain (Average % Growth Inhibition) [22]: 12.49%

DR5 mAb 3: drozitumab, known anti-human DR5 antibody; VL SEQ ID NO:54, VH SEQ ID NO:58
pKd [23]: 7.88
ka [23]: 3.3 × 10^6
kd [23]: 4.4 × 10^−2

lexatumummab: anti-DR5 agonist antibody from Human Genome Sciences
hepatotoxicity [24]: Hepatotoxicity with increased serum alanine aminotransferase, aspartate aminotransferase and bilirubin

DR5 mAb 4: conatumumab, known anti-human DR5 antibody; VL SEQ ID NO:62, VH SEQ ID NO:66
pKd [23]: 7.79
ka [23]: 2.5 × 10^6
kd [23]: 4.1 × 10^−2

soluble TRAIL: soluble TRAIL preparations
in vivo half-life [25]: approximately 30 minutes

DR5-Fc fusion: human DR5-Fc fusion protein, biotinylated, tested on TRAIL-His coat [reference compound]
amount of immobilized biotinylated antibody [26]: 0.288
